Reference: patent US6468509B2, “Sunscreen composition containing sol-gel microcapsules” (Sol-Gel Technologies Ltd., priority 1999, dated 2002)

What was measured:
supercoiled plasmid DNA = settings: positive controls at saturation concentrations; cited from earlier work
yeast strain, XD83 = assay: Phototoxicity test based on survival of yeast under simulated sunlight; type: cell-based; settings: simulated sunlight 13 mW/cm^2
Protocol: The phototoxicity tests are based on the survival of a yeast strain, XD83. A single colony of yeast is inoculated into growth medium, and harvested during the exponential growth. The cells are suspended at a known concentration in a phosphate buffer, to afford a uniform population of cells. The cells are illuminated with simulated sunlight (13 mW/cm^2) in the absence or presence of test compounds with continous stirring. Samples are taken at increasing times (0, 10, 20, 30 minutes of illumination). The samples are analyzed semi-quantitatively, by applying two dilutions of the sample as small droplets (10 μl) to the surface of nutrient agar plates, and incubated at 37° C. for 48 hours. Patches of growth are found around the droplet. It can be easily seen when growth has been decreased. Sunscreen samples are introduces as 1000 μM concentration of the major UVB sunscreen active ingredient.

Compound: CCCCC(CC)COC(=O)c1ccc(N(C)C)cc1 (stereo not drawn) [Padimate-O, 2-Ethylhexyl N,N-Dimethyl-p-aminobenzoate]
- strand breaks on DNA when illuminated in vitro (supercoiled plasmid DNA): inflict strand breaks on DNA
- phototoxic effect on the growth of the yeast cell (yeast strain, XD83; positive controls): strong phototoxic effect
- Phototoxicity (yeast strain, XD83; yeast XD83, 0-30 minutes illumination, 1000 μM of major UVB sunscreen active ingredient): Clearly toxic
